Laboratory results reported in patent US20120115872A1, “COMBINATION OF A SODIUM-PROTON EXCHANGER INHIBITOR AND OF A DIHYDRO-1,3,5-TRIAZINE AMINE DERIVATIVE” (Merck Patent GMBH, priority 2009, published 2012).

Tests used:
Assay type in all cases: cell-based
[1] = test system: complex I of the endothelial cell respiratory chain; test: Production of ROS by complex I of the endothelial cell respiratory chain; settings: endothelial cells; by inhibiting reverse electron flow
[2] = test system: mitochondrial transient permeability pore (TPP); test: Opening of the mitochondrial transient permeability pore (TPP); settings: during ischaemia and/or reperfusion events
[3] = test system: human dermal microvascular endothelial cell line HMEC-1; test: Mitochondrial membrane potential (TMRM probe, confocal microscopy) in HMEC-1 cells under ischaemia/reperfusion
Method: The immortalized human dermal microvascular endothelial cell line HMEC-1 was used. […] They were analysed by confocal microscopy before the treatment, after 60 minutes of ischaemia, after 90 minutes of reperfusion and after 120 minutes of reperfusion.

## CC1N=C(N)NC(N(C)C)=N1 (stereo not shown) [E 008]
[1]
  production of ROS by complex I of the respiratory chain: reduce the production of ROS
[2]
  opening of the mitochondrial transient permeability pore (TPP): reduce the opening of the mitochondrial transient permeability pore (TPP)
[3]; HMEC-1, 30 min pre-incubation, 60 min ischaemia, reperfusion 90 and 120 min, TMRM 30 nM
  mitochondrial membrane potential after reperfusion: protected against the damage induced by the reperfusion
[3]; during ischaemia and/or reperfusion events
  loss of potential of the mitochondrial membrane: prevent the loss of potential of the mitochondrial membrane
